Assay results reported in patent US4321384A, “Antihypertensive agents” (American Home Products Corporation, priority 1981, dated 1982).

What was measured:
[1] = test system: spontaneously hypertensive rats; test: Systolic blood pressure lowering in spontaneously hypertensive rats; assay type: in vivo, rat; conditions: 1.5 hours post dose 25 mg/kg
rabbit aortic strips = test: Ca+2 antagonism: relaxation of potassium-contracted rabbit aortic strips; assay type: cell-based; conditions: Oryctolagus cuniculus; 10^-5 M bath concentration; strips contracted with 100 millimoles potassium ion; read-out: percent relaxation (P.R.)
Procedure: After a stable active tension has developed in the strip, as measured by Statham UC-2 force transducers and recorded on an eight channel Beckman Dynograph Polygraphic Recorder, an amount of the antagonist was added to the organ bath to make a 10^-5 molar concentration of antagonist. The […] effect, expressed as percent relaxation, was taken from the mean of at least two experiments. […] A Ca^+2 antagonist producing a 20 percent relaxation of aortic tissue in this test procedure at a 10^-5 molar bath concentration of the antagonist, generally produces a significant reduction in blood pressure when a sufficient amount is given to the spontaneously hypertensive rat. The following examples illustrate the preparation of a representative number of compounds of this invention. After each example, the Ca^+2 antagonist activity of the compound is presented in terms of percent relaxation (P.R.) at the stated concentration. Similarly, the antihypertensive activity is reported in terms of millimeters mercury (mmHg) blood pressure (B.P.) reduction at the stated time post 50 mg/kg oral dosing.

## COC(=O)C1=C(C)NC2=C(C(=O)CNC2)C1c1cccc([N+](=O)[O-])c1 (centres unmarked) [Example 13, 1,4,5,6,7,8-Hexahydro-2-methyl-4-(3-nitrophenyl)-5-oxo-1,7-naphthyridine-3-carboxylic acid methyl ester]
[1]
  blood pressure (B.P.) reduction: -58 mmHg
Rabbit aortic strips
  inhibition at 10 µM: 86.5%
